Entries after “also recorded” stand apart in the source; their conditions may differ.
Tests used:
Stat3 [1] = experiment: Stat3 DNA binding assay (EMSA) with HeLa nuclear extracts; type: biochemical; settings: HeLa nuclear extract, FIG. 7A/7B
Description: Electrophoretic mobility shift assay (EMSA) was performed as described by the manufacturer (Li-Cor Biosciences, Lincoln, Nebr.). Briefly, nuclear extracts were made from HeLa cells using the NucBuster Protein Extraction Kit as described by the manufacturer (EMD Biosciences, San Diego, Calif.). 5 μg of nuclear extract was pre-incubated with the indicated dose of indicated compound for 30 minutes prior to a 15-minute incubation with the IR700-labeled consensus Stat3 oligonucleotide. Samples were then electrophoresed on a polyacrylamide gel and directly scanned using the Odyssey infrared imaging system (Li-Cor Biosciences). For the enzyme-linked immunosorbent assay (ELISA), 5 μg of nuclear extract was preincubated with indicated concentration of indicated compound for 30 minutes prior to the addition of biotinylated oligo (5′-Biotin-[…]-3′, SEQ ID NO. 1). Stat3-DNA complexes were then captured on streptavidin coated 96 well plates (Pierce, Rockford, Ill.). Bound complexes were then incubated with Stat3 polyclonal antibody (Santa Cruz Biotechnology, Santa Cruz, Calif.) followed by anti-rabbit HRP conjugated secondary antibody (GE Healthcare, Pittsburgh, Pa.). Bound antibody was then visualized by addition of TMB substrate (Pierce) and absorbance measured at 450 nm,
Nuclear extracts from HeLa cells, which contain constitutively activated Stat3 as detected by phoshporylation at the tyrosine 705 residue, were used to perform Stat3 EMSAs to monitor Stat3 DNA binding activity. Nuclear extracts were incubated with indicated compound prior to incubation with IR700-labeled Stat3 consensus oligonucleotide. Binding of Stat3 to the oligonucleotide was monitored by gel electrophoresis and detection using a LiCor Odyssey infrared scanner.

[2] = test system: Hoechst side population cells; experiment: Annexin V staining of Hoechst side population cells; type: cell-based; settings: FIG. 9A
Description: (§1) Cells treated with or without compound were harvested at 5 hours post treatment for Annexin-V staining. Collected cells were washed with PBS and resuspended in Annexin-V-FITC containing buffer and stained according to manufactures directions (Roche). Annexin-V positive cells were determined by Flow cytometry.
Cells treated with indicated compound for an indicated time were either fixed in 4% formaldehyde or cold methanol for the detection of Annexin V, cleaved caspase 3, or stat3, respectively. Coverslips were air dried and rehydrated in PBS at room temperature for 10 min. Samples were then incubated in blocking buffer (PBS, 5% FBS) for 10 min at room temperature in a humid chamber. Cells were incubated overnight at 4° C. with primary antibodies. After washing, the cells were incubated for 1 hour at room temperature with a 1:500 dilution of FITC conjugated anti-rabbit antibody. Images were captured with a Nikon TE200 microscope equipped with epifluorescence and a SPOT mosaic CCD camerapolyclonal Anti-cleaved caspase 3 antibody (1:100) was obtained from Cell Signaling Technology, Danvers, Mass. Annexin-V-FITC was obtained from Roche, Penzberg, Germany. Polyclonal anti-Stat3 antibody was obtained from Santa Cruz.
The Hoechst side population cells were treated with compound 401 and the mode of cell death was accessed by Annexin V (an early marker for apoptosis) staining.

CD34^+ BM Erythroid = experiment: Colony formation assay, CD34+ bone marrow erythroid lineage; type: cell-based
Source text: (§2) In a similar fashion to PMBCs, CD34^+ bone marrow hematopoietic stem cells were spared when treated with compound 401.

Stat3 [3] = experiment: Stat3-luciferase (Stat3-Luc) reporter assay, OSM-stimulated HeLa cells; type: cell-based; settings: FIG. 6
Description: HeLa Cells were co-transfected with Stat3-luciferase (Stat3-Luc) reporter vector (Panomics, Fremont, Calif.) and Renilla luciferase (Promega, Madison, Wis.) using Lipofectamine 2000 as described by the manufacturer (Invitrogen). Following transfection, cells were maintained in medium containing 0.5% FBS for 24 hours. Cells were then treated with the indicated compound for 30 minutes prior to the addition of 25 ng/ml oncostatin M (OSM) (R&D Systems, Minneapolis, Minn.) to the medium. 6 hours following OSM addition, cells were harvested and levels of firefly and renilla luciferase were measured using the Dual-Glo Luciferase Assay System as described by the manufacturer (Promega).
Compounds were tested for their ability to inhibit Stat3 transcription activation activity in cells using a Stat3-luciferase (Stat3-luc) reporter construct. Cells transfected with Stat3-luc were cultured in reduced serum medium prior to addition of indicated compound for 30 minutes. Cells were then stimulated with 25 ng/ml oncostatin M (OSM) for 6 hours followed by detection of Stat3-luc reporter activity. […] AG490, a known inhibitor of the Jak-Stat pathway, was included as a positive control for Stat3 inhibition.

DU145 cells = experiment: Annexin V flow cytometry in DU145 cells; type: cell-based; settings: 5 hours post-treatment, FIG. 11
Description: as §1
Additionally, DU145 cells were first treated with DMSO or the indicated concentrations of compound 401, then stained with Annexin V, and followed by Flow cytometry analysis 5 hours post-treatment.

CD133^+ cells = experiment: Cleaved-Caspase 3 staining of CD133+ cells; type: cell-based; settings: FIG. 9B
Source text: Sorting tumor cells based primarily upon the differential expression of the surface marker(s), such as CD44 or CD133, have accounted for the majority of the highly tumorigenic CSCs described to date. CD133 isolation is based upon the method of Ricci-Vitiani et al., with slight modification. CD133^+ cells were isolated by either fluorescence activated cell sorting (FACS) or magnetic nanoparticle-based separation. Briefly, […] were labeled with CD133/1 (AC133)-PE for FACS-based cell sorting; or with CD133/1 (AC133)-biotin (Miltenyi Biotec, Auburn, Calif.) for magnetic field-based separation using the EasySep® biotin selection kit (Miltenyi Biotec) according to the manufacturer's recommendations. Non-specific labeling was blocked with the supplied FcR blocking reagent and antibody incubations (1:11) were carried out on ice for 15 minutes in PBS with 2% FBS and 1 mM EDTA. Five washes were done for EasySep® isolation, whereas cells were pelleted at 400×g for 5 minutes and resuspended at 2×10^7/mL, before sorting by FACS.
Cells treated with indicated compound for an indicated time were either fixed in 4% formaldehyde or cold methanol for the detection of Annexin V, cleaved caspase 3, or stat3, respectively. Coverslips were air dried and rehydrated in PBS at room temperature for 10 min. […]

[4] = test system: Peripheral blood mononuclear cells (PBMCs); experiment: MTT cell viability of normal PBMCs; type: cell-based; settings: PBMC, 24 hour incubation
Description: For 3-(4,5 dimethylthiazol-2-yl)-2,5-diphenyltetrazolium (MTT) (Sigma-Aldrich, St. Louis, Mo.) analysis, cells were plated in 96 well plates at 10,000 cells per well. 24 hours after plating, compound was added to cells at indicated doses. 22 hours following compound addition, MTT was added to each well (0.5 mg/ml, final concentration) and plates were incubated for an additional 2 hours at 37° C. Medium was then aspirated and the formazan product was solubilized in 100 μl of isopropyl alcohol. The absorbance of each well was measured at 570 nm using a microplate reader.
Under assay conditions that result in the death of virtually all cancer cells, normal cells remain substantially viable.

CD34^+ BM Myeloid = experiment: Colony formation assay, CD34+ bone marrow myeloid lineage; type: cell-based; settings: normal cells, 6 hours incubation
Source text: as §2

CC(=O)c1cc2c(o1)C(=O)c1ccccc1C2=O [Compound 401, 2-acetylnaphtho[2,3-b]furan-4,9-dione]
inhibition of Stat3 DNA binding activity (Stat3 [1]): Dose dependent inhibition of Stat3 DNA binding; also recorded: can inhibit Stat3's DNA binding activity | mode of cell death by Annexin V staining [2]: the dying cells are Annexin V positive | therapeutic window (CD34^+ BM Erythroid; CD34+ bone marrow cells vs DU145 and HT29, in vitro): greater than 50 fold | IC50 (CD34^+ BM Erythroid; normal cells, 6 hours incubation, colony formation): > 30 µM | inhibition of OSM-stimulated Stat3 reporter activity (Stat3 [3]): inhibited OSM-stimulated Stat3 reporter activity | Annexin V staining (DU145 cells): dose-dependent increase in the Annexin V staining | cleaved-Caspase 3 staining (CD133^+ cells): many of the CD133^+ cells become cleaved-Caspase 3 positive | IC50 [4]: 14 µM | IC50 (CD34^+ BM Myeloid): > 30 µM
